According to article PMC6030096, “Synergy of Physico-chemical and Biological Experiments for Developing a Cyclooxygenase-2 Inhibitor” (Scientific Reports, 2018):
Where two headings read alike, the source gives them in different places.

Key:
COX-2 = biological target: T1, COX-2 (Homo sapiens, UniProt P35354); experiment: Human whole blood assay for COX-2 (LPS stimulated PGE2); type: cell-based; parameters: endogenous in cells; host or cells: human whole blood, aspirin-pretreated, LPS-stimulated; settings: final conc 1 µM, LPS 10 µg mL^−1
T1 sequence (P35354 18-604): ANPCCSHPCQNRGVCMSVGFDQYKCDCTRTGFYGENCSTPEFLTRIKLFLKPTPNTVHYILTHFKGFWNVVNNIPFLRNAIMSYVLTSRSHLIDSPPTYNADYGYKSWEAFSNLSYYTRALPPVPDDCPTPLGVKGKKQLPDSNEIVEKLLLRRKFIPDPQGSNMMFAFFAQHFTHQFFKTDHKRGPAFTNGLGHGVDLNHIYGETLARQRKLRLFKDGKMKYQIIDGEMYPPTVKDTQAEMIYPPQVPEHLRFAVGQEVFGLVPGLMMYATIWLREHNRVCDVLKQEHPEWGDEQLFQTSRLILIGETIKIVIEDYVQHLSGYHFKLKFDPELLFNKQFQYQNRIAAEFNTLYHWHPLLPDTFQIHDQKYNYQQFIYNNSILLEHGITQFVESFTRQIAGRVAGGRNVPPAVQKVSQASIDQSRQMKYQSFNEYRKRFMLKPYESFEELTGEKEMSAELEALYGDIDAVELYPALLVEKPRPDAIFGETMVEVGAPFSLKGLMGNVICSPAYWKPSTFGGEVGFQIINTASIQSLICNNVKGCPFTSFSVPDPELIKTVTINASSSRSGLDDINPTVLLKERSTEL
Experimental: The use of human blood for the whole blood assay was duly approved by the institutional ethical committee of the University for human subjects. Production of prostaglandin PGE2 during lipopolysaccharide (LPS) stimulated whole blood was used to quantify COX-2 inhibitory activity whereas calcium ionophore (A23187) stimulated thromboxane (TxB2) production was used to measure COX-1 inhibitory activity of the compounds.
COX-2 assay was performed by inactivating COX-1 with 50 µL aspirin (10 µg/mL) per 400 µL of blood sample.

[1] = biological target: T2, 5-LOX (Soybean lipoxygenase) (Glycine max, UniProt P08170); experiment: Lipoxygenase inhibitory activity assay; type: biochemical
T2 construct: purchased Cayman Chemical Co. 760700
T2 sequence (P08170 1-839): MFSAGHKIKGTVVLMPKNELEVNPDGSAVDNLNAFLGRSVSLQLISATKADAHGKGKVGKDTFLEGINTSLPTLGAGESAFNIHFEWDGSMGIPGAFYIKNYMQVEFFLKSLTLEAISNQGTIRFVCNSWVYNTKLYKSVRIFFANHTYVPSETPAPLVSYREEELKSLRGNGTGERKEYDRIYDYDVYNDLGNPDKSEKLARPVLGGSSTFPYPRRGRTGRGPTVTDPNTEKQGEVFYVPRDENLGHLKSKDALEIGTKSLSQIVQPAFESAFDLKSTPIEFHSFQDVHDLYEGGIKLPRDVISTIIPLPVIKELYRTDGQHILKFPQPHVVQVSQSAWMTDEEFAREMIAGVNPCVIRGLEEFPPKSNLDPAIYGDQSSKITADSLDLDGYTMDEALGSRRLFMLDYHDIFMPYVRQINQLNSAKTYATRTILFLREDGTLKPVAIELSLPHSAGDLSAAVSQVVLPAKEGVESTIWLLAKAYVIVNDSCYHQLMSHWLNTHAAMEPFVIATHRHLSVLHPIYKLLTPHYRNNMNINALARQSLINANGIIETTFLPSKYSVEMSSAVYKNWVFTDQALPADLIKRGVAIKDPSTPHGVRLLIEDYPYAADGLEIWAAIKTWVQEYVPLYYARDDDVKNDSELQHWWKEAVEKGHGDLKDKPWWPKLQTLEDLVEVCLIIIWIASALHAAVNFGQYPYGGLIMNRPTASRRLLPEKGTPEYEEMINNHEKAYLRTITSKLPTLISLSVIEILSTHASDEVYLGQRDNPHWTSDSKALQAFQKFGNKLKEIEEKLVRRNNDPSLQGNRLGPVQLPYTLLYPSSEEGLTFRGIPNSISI
Experimental: 10 µL of the compound of each concentration was mixed with 90 µL 5-LOX (Soybean lipoxygenase in assay buffer) in the specified wells of the 96-well plate. Two wells containing assay buffer and AA acted as blanks whereas four wells, each carrying enzyme and AA, were positive controls. 10 µL AA was added to each test well and the plate was shaken for 5 min. Chromogen (100 µL) was added to each well and the plate was again shaken for 5 min. The absorbance of each well at 490 nm was recorded on microplate scanning spectrophotometer. As per the protocol given with the assay kit, the 5-LOX inhibitory activity for each compound at each concentration was determined using the mean of the two values (duplicate experiments) with deviation <5%.

[2] = soybean lipoxygenase, duplicate, read-out: IC50 5-LOX

Row | Compound | Production of PGE2, +LPS (COX-2) [ng/mL] | IC50 [1, 2] [nM] | IC50 [1] [nM]
1 | O=C1Nc2ccccc2C1=Cc1cn(C[C@H](O)Cn2c3ccccc3c(=O)c3ccccc32)c2ccccc12 [(S)-3c] | 0.97 ± 0.09 | 500 ± 28 | 
2 | O=C1NC(=O)C(=Cc2cn(CCCn3c4ccccc4c(=O)c4ccccc43)c3ccccc23)C(=O)N1 [Compound 4a] | 1.00 ± 0.13 |  | 200 ± 10
3 | O=C1Nc2ccccc2C1=Cc1cn(CCCn2c3ccccc3c(=O)c3ccccc32)c2ccccc12 [Compound 4c] | 1.01 ± 0.14 | 100 ± 80 | 
